# Active and inactive are the calls of the source. The rule behind the calls is not given here.
# Legend:
# K-562R [1] = experiment: Cytotoxicity against human K562-r cells assessed as cell viability at 10 uM incubated for 72 hrs by MTT assay relative to control; type: functional; settings: read-out: Activity
# K-562R [2] = experiment: Sensitization of imatinib-induced cytotoxicity against human K562-r cells assessed as reduction in metabolic activity at 10 uM measured after 72 hrs by MTT assay; type: functional, cell-based
# COS-7 = experiment: Cytotoxicity against African green monkey COS-7 cells assessed as reduction in metabolic activity at 10 uM incubated for 72 hrs by MTT assay; type: toxicity, cell-based; settings: chlorocebus aethiops, cos-7, 72 h
# K-562R [3] = experiment: Inhibition of side population phenotype in human K562-r cells at 10 uM incubated for 90 mins by DCV staining based flow cytometric analysis relative to control; type: functional
# K-562R [4] = experiment: Sensitization of imatinib-induced cytotoxicity against human K562-r cells assessed as metabolic activity at 8 uM measured after 72 hrs by MTT assay relative to control; type: functional
# K-562R [5] = experiment: Sensitization of imatinib-induced cytotoxicity against human K562-r cells assessed as cell viability at 10 uM measured after 72 hrs by MTT assay relative to control; type: functional; settings: read-out: Activity
# A2780/Taxol [6] = experiment: Inhibition of side population phenotype in human Paclitaxel-resistant A2780 cells expressing ABCB1 at 10 uM incubated for 90 mins by DCV staining based flow cytometric analysis; type: functional, cell-based
# A2780/Taxol [7] = experiment: Sensitization of paclitaxel-induced cytotoxicity against human Paclitaxel-resistant A2780 cells assessed as reduction in metabolic activity at 10 uM measured after 72 hrs by MTT assay; type: functional, cell-based
# [8] = system: Docetaxel-resistant DU145 cell; experiment: Enhancement of docetaxel-induced anti-metabolic activity against human Docetaxel-resistant DU145 cell assessed as reduction in metabolic activity at 10 uM measured after 72 hrs by MTT assay; type: functional, cell-based
# [9] = system: Paclitaxel-resistant IGROV-1 cell; experiment: Enhancement of paclitaxel-induced anti-metabolic activity in human Paclitaxel-resistant IGROV-1 cells assessed as reduction in metabolic activity upto 300 nM measured after 72 hrs by MTT assay; type: functional, cell-based
# A549 [10] = experiment: Effect on STAT5 protein expression in human A549 cells at 10 uM incubated for 72 hrs by Western blotting based immunoassay; type: functional, cell-based
# A2780/Taxol [11] = experiment: Effect on STAT5 protein expression in human Paclitaxel-resistant A2780 cells expressing ABCB1 at 10 uM incubated for 72 hrs by Western blotting based immunoassay; type: functional, cell-based
# A549 [12] = experiment: Inhibition of side population phenotype in human A549 cells expressing ABCC1 at 10 uM incubated for 90 mins by DCV staining based flow cytometric analysis; type: functional, cell-based
# [13] = system: Paclitaxel-resistant IGROV-1 cell; experiment: Inhibition of STAT5 phosphorylation in human Paclitaxel-resistant IGROV-1 cells expressing ABCB1 at 10 uM incubated for 72 hrs by Western blotting based immunoassay
# [14] = system: Paclitaxel-resistant A2780; experiment: Inhibition of STAT5 phosphorylation in human Paclitaxel-resistant A2780 cells expressing ABCB1 at 10 uM incubated for 72 hrs by Western blotting based immunoassay; type: cell-based
# K562-r [15] = experiment: Effect on STAT5 phosphorylation in human K562-r cells at 4 uM measured after 6 hrs by Western blotting based immunoassay; type: cell-based
# MCF7 [16] = experiment: Inhibition of side population phenotype in human MCF7 cells expressing ABCG2 at 10 uM incubated for 90 mins by DCV staining based flow cytometric analysis; type: functional, cell-based
# [17] = system: Docetaxel-resistant PC-3 cell; experiment: Enhancement of docetaxel-induced anti-metabolic activity against human Docetaxel-resistant PC-3 cell assessed as reduction in metabolic activity at 10 uM measured after 72 hrs by MTT assay; type: functional, cell-based
# A549 [18] = experiment: Inhibition of STAT5 phosphorylation in human A549 cells at 10 uM incubated for 72 hrs by Western blotting based immunoassay; type: cell-based
# MCF7 [19] = experiment: Effect on STAT5 protein expression in human MCF7 cells at 10 uM incubated for 72 hrs by Western blotting based immunoassay; type: functional, cell-based
# [20] = system: Paclitaxel-resistant IGROV-1 cell; experiment: Inhibition of side population phenotype in human Paclitaxel-resistant IGROV-1 cells expressing ABCB1 at 10 uM incubated for 90 mins by DCV staining based flow cytometric analysis; type: functional
# [21] = system: Docetaxel-resistant DU145 cell; experiment: Inhibition of side population phenotype in human Docetaxel-resistant DU145 cell expressing ABCB1 at 10 uM incubated for 90 mins by DCV staining based flow cytometric analysis; type: functional
# K562-r [22] = experiment: Inhibition of STAT5 phosphorylation in human K562-r cells at 4 uM measured after 6 hrs in presence of imatinib by Western blotting based immunoassay; type: cell-based
# [23] = system: Paclitaxel-resistant IGROV-1 cell; experiment: Downregulation of STAT5 protein expression in human Paclitaxel-resistant IGROV-1 cells expressing ABCB1 at 10 uM incubated for 72 hrs by Western blotting based immunoassay; type: functional
# MCF7 [24] = experiment: Inhibition of STAT5 phosphorylation in human MCF7 cells at 10 uM incubated for 72 hrs by Western blotting based immunoassay; type: cell-based
# [25] = system: Docetaxel-resistant PC-3 cell; experiment: Inhibition of side population phenotype in human Docetaxel-resistant PC-3 cell expressing ABCB1 at 10 uM incubated for 90 mins by DCV staining based flow cytometric analysis; type: functional
# K562-r [26] = experiment: Inhibition of STAT5 phosphorylation in human K562-r cells at 4 uM measured after 72 hrs by Western blotting based immunoassay; type: cell-based
# K-562R [27] = experiment: Effect on ABCB1 protein expression in human K562-r cells at 4 uM incubated for 72 hrs by Western blotting based immunoassay; type: functional, cell-based
# K562 = experiment: Cytotoxicity against human K562 cells assessed as reduction in metabolic activity at 10 uM measured after 72 hrs by MTT assay; type: functional, cell-based
# K-562R [28] = experiment: Sensitization of imatinib-induced cytotoxicity against human K562-r cells assessed as reduction in metabolic activity at 0.5 to 6 uM measured after 72 hrs by MTT assay; type: functional, cell-based; settings: dose 0.5-6 µM
# K-562R [29] = experiment: Cytotoxicity against human K562-r cells assessed as reduction in metabolic activity; type: functional, cell-based
# K562-r [30] = experiment: Effect on STAT5 phosphorylation in human K562-r cells at 4 uM measured after 6 hrs in presence of imatinib by Western blotting based immunoassay; type: cell-based
smiles,measurement,setting,value
CCCc1nc2ccccc2n1Cc1ccccc1C(N)=O,viability at 10 µM,K-562R [1],~75%
same,Activity,K-562R [2],inactive
same,Activity,COS-7,Non-toxic
CCCc1nc2ccccc2n1Cc1ccc(C(=O)OC)cc1,inhibition,K-562R [3],inactive
same,Activity,K-562R [4],44%
same,Activity,COS-7,Non-toxic
same,viability at 10 µM,K-562R [5],34%
CCCc1nc2ccccc2n1Cc1ccc(-c2ccccc2C(=O)O)cc1,Activity,K-562R [2],inactive
same,Activity,COS-7,Non-toxic
CCCc1nc2ccccc2n1Cc1ccc(-c2cccc(C(=O)O)c2)cc1,Activity,K-562R [2],inactive
same,Activity,COS-7,Non-toxic
CCCc1nc2ccccc2n1Cc1ccc(-c2ccccc2C(N)=O)cc1,Activity,COS-7,Non-toxic
CCCc1nc2ccccc2n1Cc1ccc(-c2ccc(C(N)=O)cc2)cc1,inhibition,A2780/Taxol [6],Active
same,Activity,A2780/Taxol [7],Active
same,Activity,[8],Active
same,inhibition,K-562R [3],Active
same,Activity,[9],Active
same,Activity,A549 [10],inactive
same,Activity,A2780/Taxol [11],inactive
same,inhibition,A549 [12],inactive
same,inhibition,[13],Active
same,inhibition,[14],Active
same,Activity,K562-r [15],inactive
same,inhibition,MCF7 [16],inactive
same,Activity,[17],Active
same,inhibition,A549 [18],Active
same,Activity,MCF7 [19],inactive
same,inhibition,[20],Active
same,inhibition,[21],Active
same,inhibition,K562-r [22],Active
same,Activity,[23],Active
same,Activity,COS-7,Non-toxic
same,inhibition,MCF7 [24],Active
same,inhibition,[25],Active
same,inhibition,K562-r [26],Active
same,Activity,K-562R [27],inactive
COc1ccc(CCN(C)CCCC(C#N)(c2ccc(OC)c(OC)c2)C(C)C)cc1OC (stereo unspecified),Activity,K562,inactive
same,Activity,K-562R [28],Active
same,Activity,K-562R [29],inactive
CCCc1nc2ccccc2n1Cc1ccccc1C(=O)OC,inhibition,K-562R [3],inactive
same,Activity,K-562R [4],44%
same,Activity,K562-r [15],inactive
same,Activity,COS-7,Non-toxic
same,Activity,K562-r [30],inactive
same,viability at 10 µM,K-562R [5],34%
same,inhibition,K562-r [26],Active; Lesser Effect Observed
same,Activity,K-562R [27],inactive
CCCc1nc2ccccc2n1Cc1ccc(-c2ccc(C(=O)O)cc2)cc1,Activity,K-562R [2],inactive
same,Activity,COS-7,Non-toxic
CCCc1nc2ccccc2n1Cc1ccc(-c2cccc(C(=O)OC)c2)cc1,Activity,COS-7,Non-toxic
same,viability at 10 µM,K-562R [5],34%

# Reference: ChEMBL document CHEMBL6087448, “Eradication of Therapy-Resistant Cancer Stem Cells by Novel Telmisartan Derivatives” (J Med Chem, 2025)
